Laboratory results from patent publication US8039499B2, “Ester compound and its use” (Sumitomo Chemical Company, Limited, priority 2006, dated 2011).

How the values were obtained:
adult houseflies = test: Test Example 2: housefly knock down, spray in cubic glass chamber; type: in vivo; conditions: active ingredient concentration 0.00625%, 0.7 ml sprayed, counted 10 minutes after spraying, repeated twice
Protocol: The formulation of the sample compound obtained in Formulation Example 7 was diluted with dichloromethane/deodorized kerosene=1/9 mixed solution so that the active ingredient concentration was 0.00625%, to prepare a test solution.
Ten adult houseflies (4 or 5 males and 4 or 5 females each) were left in a cubic glass chamber (70 cm at each side), and 0.7 ml of the test solution was sprayed through a small window at the side of the chamber using a spray gun at a spraying pressure of 0.9 kg/cm^2. 10 minutes after spraying, the number of knocked-down insects was counted (repeated twice).

[1] = tested on: German cockroach (Blattella germanica); test: Test Example 3: German cockroach knock down, spray in test chamber; type: in vivo; conditions: active ingredient concentration 0.00625%, 1.5 ml sprayed, counted 1 minutes after spraying, repeated twice
Protocol: The formulation of the sample compound obtained in Formulation Example 7 was diluted with dichloromethane/deodorized kerosene=1/9 mixed solution so that the active ingredient concentration was 0.00625%, to prepare a test medicinal solution.
A container (8.75 cm in diameter, 7.5 cm in height, bottom covered 16-mesh iron net and inside wall painted butter for preventing tested pill bugs to escape) having 10 German cockroach (5 males and 5 females, Blattella germanica) therein was set on the bottom of a test chamber (46 cm×46 cm, height: 70 cm). From a height of 60 cm above the upper surface of the container, 1.5 ml of the test solution was sprayed using a spray gun at a spraying pressure of 0.4 kg/cm^2. After 30 seconds, the German cockroach were taken out and put into a clean plastic cup having 8.2 cm in diameter. The lid having holes was covered on the cup. 1 minutes after spraying, the number of knocked-down insects was counted (repeated twice).

SMILES | knock down ratio of sample insects (adult houseflies) [%] | knock down ratio of sample insects [1] [%]
C#CCN1CC(=O)N(COC(=O)[C@@H]2[C@@H](C=C(C)C)C2(C)C)C1=O [comparative compound (A), 2,5-dioxo-3-(2-propynyl)imidazolidine-1-ylmethyl (1R)-trans-2,2-dimethyl-3-(2-methyl-1-propenyl)cyclopropane carboxylate] | 42 | 
C#CCc1ccc(COC(=O)[C@@H]2[C@@H](/C=C(\C)C=NOC)C2(C)C)o1 [comparative compound (B), 5-(2-propynyl)furan-2-ylmethyl (1R)-trans-3-[(E)-3-methoxyimino-2-methyl-1-propenyl]-2,2-dimethylcyclopropanecarboxylate] |  | 0
C#CCN1CC(=O)N(COC(=O)[C@@H]2[C@@H](/C=C(\C)C=NOC)C2(C)C)C1=O [present compound (1), 2,5-dioxo-3-(2-propynyl)imidazolidin-1-ylmethyl (1R)-trans-3-[(E)-3-methoxyimino-2-methyl-1-propenyl]-2,2-dimethylcyclopropanecarboxylate] | 100 | 100
